Data: ChEMBL document CHEMBL3886351, “TrkA kinase inhibitors, compositions and methods thereof” (2015)

Target: High affinity nerve growth factor receptor (Homo sapiens, UniProt P04629)
Experiment: Kinase Activity Assay: TrkA kinase activity was measured as the ability of the enzyme to phosphorylate a fluorescently labeled peptide substrate. Buffer salts, reagents, and fluorescently labeled peptides were purchased from Carna Biosciences and were of the highest quality available (QSS Assist TRKA_MSA Kit). Enzyme was purchased from Cell Signaling, and was used without further purification. 384-well round bottom assay plates were prepared by the addition of 200 nl of a DMSO solution of compound at various concentrations to final inhibitor concentrations ranging from 100 μM to […]. Next, assay buffer (10 μl) containing substrate and ATP were added, followed by addition of 10 μl of enzyme in assay buffer. Final assays concentrations were: [E]=0.37 nM, [S]=1 μM, [ATP]=2 mM. The reactions were incubated at room temperature for 3 hours resulting in approximately 15% substrate phosphorylation and were terminated by the addition of 5 μl of stop buffer.

Chain of High affinity nerve growth factor receptor (P04629 whole entry): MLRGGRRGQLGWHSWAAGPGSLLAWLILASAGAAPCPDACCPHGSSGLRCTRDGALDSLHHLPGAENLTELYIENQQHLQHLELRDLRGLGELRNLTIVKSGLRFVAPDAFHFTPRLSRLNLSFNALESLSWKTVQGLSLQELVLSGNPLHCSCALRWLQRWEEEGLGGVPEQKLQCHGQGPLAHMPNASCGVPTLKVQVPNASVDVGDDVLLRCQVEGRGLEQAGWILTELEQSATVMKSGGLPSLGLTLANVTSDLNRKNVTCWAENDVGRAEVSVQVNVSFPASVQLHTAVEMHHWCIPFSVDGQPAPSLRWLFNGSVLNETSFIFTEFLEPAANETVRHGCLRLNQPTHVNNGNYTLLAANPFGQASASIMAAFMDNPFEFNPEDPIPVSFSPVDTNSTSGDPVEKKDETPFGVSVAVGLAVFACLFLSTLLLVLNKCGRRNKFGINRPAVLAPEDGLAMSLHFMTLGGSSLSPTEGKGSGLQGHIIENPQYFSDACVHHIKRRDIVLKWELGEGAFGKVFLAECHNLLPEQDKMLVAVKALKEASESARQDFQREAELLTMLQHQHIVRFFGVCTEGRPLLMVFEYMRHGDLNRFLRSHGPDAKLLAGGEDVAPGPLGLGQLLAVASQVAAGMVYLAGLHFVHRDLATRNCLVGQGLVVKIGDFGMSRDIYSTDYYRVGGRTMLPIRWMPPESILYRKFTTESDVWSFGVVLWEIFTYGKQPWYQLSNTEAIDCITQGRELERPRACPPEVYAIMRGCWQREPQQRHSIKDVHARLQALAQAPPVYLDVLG

SMILES	EC50
CC(C)N(Cc1cccc(-c2nccs2)c1)C(=O)Nc1ccc(OC(F)(F)F)cc1	119 nM
CC(C)N(Cc1n[nH]c2ncccc12)C(=O)Nc1ccc(SC(F)(F)F)cc1	24.9 nM
C#CC(C)N(Cc1cccc(-c2nccs2)c1)C(=O)Nc1ccc(OC(F)(F)F)cc1 (configuration not stated)	48 nM
CC(C)N(Cc1cc(-c2nccs2)ccn1)C(=O)Nc1ccc(OC(F)(F)F)cc1	8080 nM
CC(C)N(Cc1cccc(-c2nccs2)c1)C(=O)Nc1cnc(C(C)(C)C)nc1	102 nM
CC1(C)CCN(c2ccc(SC(F)(F)F)cc2)C(=O)N1Cc1c[nH]c2ncccc12	19.7 nM
CC(C)N(Cc1n[nH]c2ncccc12)C(=O)Nc1ccc(OC(F)(F)F)cc1	141 nM
